Data as given in US9334212B2, “Compounds and compositions” (Colgate-Palmolive Company, priority 2010, dated 2016).
In brackets after ≈: the same amount, converted by molar mass. Read-outs that look alike come from different tables or passages of the source.

What was measured:
Assay type in all cases: cell-based
bacterial suspension = assay: Short Interval Kill Test (SIKT)
Protocol: SIKT determines the kill effect of the test article at a predetermined exposure time. […] Briefly, 1.2 mL of the compound of Formula (II)+PEG 300 was transferred into a sterile test tube, to which 0.2 mL of a freshly prepared bacterial suspension (OD adjusted to 0.1 at 620 nm) was added and gently mixed. The reaction was neutralized at the 1 minute or at the 5 minute point by adding a neutralizing broth. The reaction mixture was further diluted with letheen broth in 10-fold fashion and plated on MCA (Microbial Count Agar) plates for viable bacterial count.

S. aureus = assay: Rapid Agar Plate Assay (RAPA); conditions: for Log reduction in Bacterial Count: vs tap water washed plates
Protocol: (§1) The compound of Formula (II) was mixed with a base bar soap chip and tested for any residual antibacterial activity against S. aureus and E. coli by a rapid agar plate assay (RAPA). Briefly, the method involves washing TSA plates with the soap samples for 10 seconds, lathering for another 40 seconds and finally rinsing for 10 seconds. After air drying for 30 minutes, 100 μL of freshly prepared bacterial suspension (density was adjusted to 0.1 OD at 620 nm) was applied on the treated plates and then plates were incubated at 37° C. for about 18 hours. TSA plates washed with normal tap water were used as negative control. Next day, bacterial colonies were counted and converted to log 10 and the log reductions as a result of washing with samples were calculated.

E. coli = assay: Rapid Agar Plate Assay (RAPA); conditions: vs tap water washed plates
Protocol: as §1

A. viscosus = assay: Minimum Inhibitory Concentration, oral pathogens; conditions: Actinomyces viscosus, read-out: Minimum Inhibitory Concentration
Source text: (§2) Table 1 (below) describes the antibacterial efficacy of an exemplary compound of the present invention against common oral pathogens, A. viscosus and S. mutans.

S. mutans = assay: Minimum Inhibitory Concentration, oral pathogens; conditions: Streptococcus mutans, read-out: Minimum Inhibitory Concentration
Source text: as §2

[1] = system: Corynebacterium minutissimum (C. minutissimum); assay: Minimum Inhibitory Concentration (MIC), skin bacteria; conditions: for MIC: Corynebacterium minutissimum, read-out: Minimum Inhibitory Concentration
Protocol: (§3) The compound of Formula (II) was evaluated for its antibacterial efficacy against representative skin bacteria such as Staphylococcus aureus (S. aureus), Staphylococcus epidermidis (S. epidermidis), Corynebacterium minutissimum (C. minutissimum), Corynebacterium xerosis (C. xerosis) and Escherichia coli (E. coli). Zone of inhibition (ZOI), Minimum Inhibitory Concentration (MIC), and a Short Interval Kill Test (SIKT) were all performed, and the results are described in Tables 2-4 (below).
(§4) MIC against four common skin pathogens was evaluated for the compound of Formula (II), using the following method: A two-fold dilution of the compound of Formula (II) was prepared in a 96 well plate and a constant amount of bacteria added in each well. After 18-24 hours of incubation, bacterial growth was measured by using a Spectrophotometric Micro-plate Reader and the MIC values were determined.
(§5) The antibacterial efficacy of the compound of Formula (II) was measured in comparison to triclosan, using various tests. The results are provided below in Tables 5 and 6.

[2] = system: Staphylococcus aureus (S. aureus); assay: as above; conditions: for MIC: Staphylococcus aureus, read-out: Minimum Inhibitory Concentration
Protocol: as §3, §4, §5

[3] = system: Escherichia coli (E. coli); assay: as above
Protocol: as §3, §4, §5

[4] = system: Staphylococcus epidermidis (S. epidermidis); assay: as above; conditions: for MIC: Staphylococcus epidermidis, read-out: Minimum Inhibitory Concentration
Protocol: as §3, §4

[5] = system: Corynebacterium xerosis (C. xerosis); assay: as above; conditions: read-out: Minimum Inhibitory Concentration
Protocol: as §3, §4

[6] = system: Escherichia coli (E. coli); assay: Zone of Inhibition Test (ZOI); conditions: Example 4
Protocol: as §3
(§6) The compound of Formula (II) was dissolved in polyethylene glycol (PEG 300), or in 100% ethanol at 0.5% concentration. 20 μL of each solution was placed on separate filter disks and air dried for 20 minutes. After 20 minutes of drying, the coated disks were placed in the bacterial lawn and plates were incubated at 37° C. for 18 hours, followed by measurement of ZOI.
as §5

[7] = system: Staphylococcus epidermidis (S. epidermidis); assay: Zone of Inhibition Test (ZOI); conditions: S. epiderm., 37° C. 18 hours
Protocol: as §3, §6

[8] = system: Corynebacterium xerosis (C. xerosis); assay: Zone of Inhibition Test (ZOI); conditions: 37° C. 18 hours
Protocol: as §3, §6

[9] = system: Corynebacterium minutissimum (C. minutissimum); assay: Zone of Inhibition Test (ZOI)
Protocol: as §3
(§7) 20 μL of each solution was placed on separate filter disks and air dried for 20 minutes. After 20 minutes of drying, the coated disks were placed in the bacterial lawn and plates were incubated at 37° C. for 18 hours, followed by measurement of ZOI.
as §5

[10] = system: Staphylococcus aureus (S. aureus); assay: Zone of Inhibition Test (ZOI)
Protocol: as §3, §7, §5

[11] = 0.5% in EtOH, 20 μL on filter disk
[12] = 0.5% in PEG 300, 20 μL on filter disk
[13] = 0.5% in EtOH, 20 μL on filter disk, 37° C. 18 hours
[14] = 0.5% in PEG 300, 20 μL on filter disk, 37° C. 18 hours

For `O=C(Nc1ccc(Cl)cc1)Nc1ccc(Cl)c(Cl)c1` [TCC, reference compound], the “Short Interval Kill Test kill effect” value (bacterial suspension; 0.5%, exposure time 1 minute) was 56.54, the “Short Interval Kill Test kill effect” value (bacterial suspension; 0.5%, exposure time 5 minute) was 74.11 and the “Log reduction in Bacterial Count” value (S. aureus; 0.4% TCC bar) was 2.409 log. The “Log reduction in Bacterial Count” value (E. coli; 0.4% TCC bar) was 0.167 log.

For `C=CCc1ccc(O)c(-c2cc(CC=C)ccc2O)c1` [Magnolol, magnolol], the MIC (A. viscosus) was 32 µg/mL (≈ 120 µM) and the MIC (S. mutans) was 32 µg/mL (≈ 120 µM).

In the case of `C=CCc1cc(Cl)c(O)c(-c2cc(CC=C)cc(Cl)c2O)c1` [Compound of Formula (II)], the MIC ([1]; C. minutissimum, 0.5% active, Example 4) is reported as 9.7 µg/mL, the MIC ([1]; C. minutissimum, + EtOH, 18-24 hours incubation) is reported as 39 µg/mL and the MIC ([1]; C. minutissimum, + PEG 300, 18-24 hours incubation) is reported as 9.77 µg/mL. The MIC ([2]; S. aureus, 0.5% active, Example 4) was 2.44 µg/mL, the MIC ([2]; S. aureus, + EtOH, 18-24 hours incubation) was 39 µg/mL and the MIC ([2]; S. aureus, + PEG 300, 18-24 hours incubation) was 19.5 µg/mL. For the same compound, the MIC ([3]; E. coli, 0.5% active, Example 4, read-out: Minimum Inhibitory Concentration) was 1250 µg/mL, the “Minimum Inhibitory Concentration” value ([4]; S. epiderm., + EtOH, 18-24 hours incubation) was 39 ppm and the MIC ([4]; S. epiderm., + PEG 300, 18-24 hours incubation) was 39 µg/mL. The MIC ([5]; C. xerosis, + EtOH, 18-24 hours incubation) was 156 µg/mL, the MIC ([5]; C. xerosis, + PEG 300, 18-24 hours incubation) was 78 µg/mL and the “Short Interval Kill Test kill effect” value (bacterial suspension; 0.5% + PEG 300, exposure time 1 minute) was 65.18. The “Short Interval Kill Test kill effect” value (bacterial suspension; 0.5% + PEG 300, exposure time 5 minute) was 87.37, the “Log reduction in Bacterial Count” value (S. aureus; 0.5% in soap chip) was 0.506 log and the “Log reduction in Bacterial Count” value (S. aureus; 0.5% in soap chip, listed as compound of Formula (II)) was 0.5 log. For the same compound, the “reduction in the growth” value (S. aureus; bar soap chip containing 0.5%) was greater than 50%, the “Log reduction in Bacterial Count” value (E. coli; 0.5% in soap chip) was 0.09 log and the “Zone of Inhibition” value ([6]; 0.5%) was 0 mm. The “Zone of Inhibition” value [7, 11] was 15 mm, the “Zone of Inhibition” value [7, 12] was 16 mm and the “Zone of Inhibition” value [8, 11] was 14 mm. The “Zone of Inhibition” value [8, 12] was 15 mm, the MIC (A. viscosus; A. viscosus) was 0.5 to 1 µg/mL and the MIC (S. mutans; S. mutans) was 0.5 to 1 µg/mL. The “Zone of Inhibition” value [9, 13] was 17 mm, the “Zone of Inhibition” value [9, 14] was 21 mm and the “Zone of Inhibition” value ([9]; 0.5%, Example 4) was 22 mm. For the same compound, the “Zone of Inhibition” value [10, 13] was 13 mm, the “Zone of Inhibition” value [10, 14] was 15 mm and the “Zone of Inhibition” value ([10]; 0.5%, Example 4) was 20 mm.

In the case of `Oc1cc(Cl)ccc1Oc1ccc(Cl)cc1Cl` [Triclosan, 5-chloro-2-(2,4-dichlorophenoxy)phenol, reference compound], the “Minimum Inhibitory Concentration” value ([1]; C. minutissimum, 0.15% active, Example 4) is reported as 4.88 ppm, the MIC [1] is reported as 4.88 µg/mL (≈ 16.9 µM) and the “Minimum Inhibitory Concentration” value ([2]; S. aureus, 0.15% active, Example 4) is reported as less than 2.44 ppm. The MIC [2] was less than 2.44 µg/mL, the MIC ([3]; read-out: Minimum Inhibitory Concentration) was less than 2.44 µg/mL and the MIC [4] was less than 2.44 µg/mL. The MIC [5] was 9.76 µg/mL (≈ 33.7 µM), the “Log reduction in Bacterial Count” value (S. aureus; 0.25% Triclosan bar) was 2.409 log and the “Log reduction in Bacterial Count” value (E. coli; 0.25% Triclosan bar) was 2.387 log. For the same compound, the “Zone of Inhibition” value ([6]; 0.15%) was 40 mm, the MIC (A. viscosus) was 1 to 2 µg/mL (≈ 3.45 to 6.91 µM) and the MIC (S. mutans) was 1 to 2 µg/mL (≈ 3.45 to 6.91 µM). For the same compound, the “Zone of Inhibition” value ([9]; 0.15%, Example 4) was 21 mm and the “Zone of Inhibition” value ([10]; 0.15%, Example 4) was 50 mm.
